For four cell lines, relative viability results are on record in the supplement of paper PMC10307832.

What all share (experiment): relative viability (nuclei count vs DMSO), 5 days (fraction); higher = more cells survive
Compound in the test “AZD6482 + Phenformin”: Cc1cc([C@@H](C)Nc2ccccc2C(=O)O)c2nc(N3CCOCC3)cc(=O)n2c1 [AZD6482] + N=C(N)NC(=N)NCCc1ccccc1 [Phenformin] (partner 250 µM)
The method, boiled down:
(§1)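 Lung cancer cell lines, seeded in 1536-well plates, were treated the following day by pin tool with a single drug or with five library-drug doses (not always all listed) in √10 steps on top of a fixed anchor-drug dose. Cells were fixed and nuclei stained in one step after 5 days, and nuclei were counted. Relative viability is the nuclei count for treated wells divided by that for vehicle wells, reported as medians of duplicate plates.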

Compound in test [1]: COc1cc2nc(N3CCCN(C)CC3)nc(NC3CCN(Cc4ccccc4)CC3)c2cc1OC + CS(=O)(=O)CCNCc1ccc(-c2ccc3ncnc(Nc4ccc(OCc5cccc(F)c5)c(Cl)c4)c3c2)o1 [Lapatinib] (partner 2 µM)
The method, boiled down:
as §1

Compound in the test “AZD6482 + Luminespib”: Cc1cc([C@@H](C)Nc2ccccc2C(=O)O)c2nc(N3CCOCC3)cc(=O)n2c1 [AZD6482] + CCNC(=O)c1noc(-c2cc(C(C)C)c(O)cc2O)c1-c1ccc(CN2CCOCC2)cc1 [Luminespib] (partner 0.01 µM)
The method, boiled down: as §1

Compound in the test “AZD6482 + Palbociclib”: Cc1cc([C@@H](C)Nc2ccccc2C(=O)O)c2nc(N3CCOCC3)cc(=O)n2c1 [AZD6482] + CC(=O)c1c(C)c2cnc(Nc3ccc(N4CCNCC4)cn3)nc2n(C2CCCC2)c1=O [Palbociclib] (partner 0.5 µM)
In outline: as §1

Take NCI-H1395: the relative viability in the test with AZD6482 + Phenformin (first compound 0.08 µM) was found to be 0.388; in the test with AZD6482 + Phenformin (first compound 0.253 µM) it was 0.385; in the test with AZD6482 + Phenformin (first compound 0.8 µM), 0.438; with AZD6482 + Phenformin (first compound 2.53 µM) it was 0.347; with AZD6482 + Phenformin (first compound 8 µM) it was 0.302; in test [1] (first compound 0.2 µM), 0.987. Besides, the relative viability in test [1] (first compound 0.6325 µM) came out at 1.08; in test [1] (first compound 2 µM) it was 1.29; in test [1] (first compound 6.325 µM) it was 0.831; with AZD6482 + Luminespib (first compound 0.08 µM), 0.541; with AZD6482 + Luminespib (first compound 0.253 µM), 0.601; in the test with AZD6482 + Luminespib (first compound 0.8 µM), 0.514. Further, the relative viability with AZD6482 + Luminespib (first compound 2.53 µM) was found to be 0.376; in the test with AZD6482 + Luminespib (first compound 8 µM), 0.482; with AZD6482 + Palbociclib (first compound 0.08 µM) it was 0.49; with AZD6482 + Palbociclib (first compound 0.253 µM) it was 0.486; in the test with AZD6482 + Palbociclib (first compound 0.8 µM), 0.482; with AZD6482 + Palbociclib (first compound 2.53 µM), 0.401. Moreover, the relative viability with AZD6482 + Palbociclib (first compound 8 µM) amounted to 0.456.

For NCI-H358, the relative viability with AZD6482 + Phenformin (first compound 0.08 µM) stood at 0.305; with AZD6482 + Phenformin (first compound 0.253 µM), 0.323; in the test with AZD6482 + Phenformin (first compound 0.8 µM), 0.317; with AZD6482 + Phenformin (first compound 2.53 µM) it was 0.163; in the test with AZD6482 + Phenformin (first compound 8 µM), 0.233; in test [1] (first compound 0.2 µM), 0.449. Further, the relative viability is 0.554 in test [1] (first compound 0.6325 µM); 0.49 in test [1] (first compound 2 µM); 0.347 in test [1] (first compound 6.325 µM); 0.422 in the test with AZD6482 + Luminespib (first compound 0.08 µM); 0.485 with AZD6482 + Luminespib (first compound 0.253 µM); 0.338 in the test with AZD6482 + Luminespib (first compound 0.8 µM). Also, the relative viability with AZD6482 + Luminespib (first compound 2.53 µM) is 0.173; in the test with AZD6482 + Luminespib (first compound 8 µM) it was 0.199; with AZD6482 + Palbociclib (first compound 0.08 µM), 0.149; with AZD6482 + Palbociclib (first compound 0.253 µM), 0.121; with AZD6482 + Palbociclib (first compound 0.8 µM), 0.134; with AZD6482 + Palbociclib (first compound 2.53 µM), 0.127. For the same cell line, in the test with AZD6482 + Palbociclib (first compound 8 µM), the relative viability amounted to 0.115.

On to NCI-H838, for which the relative viability with AZD6482 + Phenformin (first compound 0.08 µM) was found to be 0.459; in the test with AZD6482 + Phenformin (first compound 0.253 µM) it was 0.519; with AZD6482 + Phenformin (first compound 0.8 µM), 0.497; with AZD6482 + Phenformin (first compound 2.53 µM), 0.263; with AZD6482 + Phenformin (first compound 8 µM), 0.397; in test [1] (first compound 0.2 µM), 0.948. Also, the relative viability in test [1] (first compound 0.6325 µM) turned out to be 1.11; in test [1] (first compound 2 µM), 1.13; in test [1] (first compound 6.325 µM), 0.918; in the test with AZD6482 + Luminespib (first compound 0.08 µM), 0.246; with AZD6482 + Luminespib (first compound 0.253 µM), 0.355; with AZD6482 + Luminespib (first compound 0.8 µM), 0.265. Further, the relative viability with AZD6482 + Luminespib (first compound 2.53 µM) was 0.193; with AZD6482 + Luminespib (first compound 8 µM), 0.332; with AZD6482 + Palbociclib (first compound 0.08 µM), 0.167; with AZD6482 + Palbociclib (first compound 0.253 µM), 0.203; in the test with AZD6482 + Palbociclib (first compound 0.8 µM) it was 0.204; with AZD6482 + Palbociclib (first compound 2.53 µM) it was 0.167. The relative viability with AZD6482 + Palbociclib (first compound 8 µM) stood at 0.163.

Turning to CAL-12T, the relative viability with AZD6482 + Phenformin (first compound 0.08 µM) was 0.615; with AZD6482 + Phenformin (first compound 0.253 µM) it was 0.517; with AZD6482 + Phenformin (first compound 0.8 µM) it was 0.568; with AZD6482 + Phenformin (first compound 2.53 µM) it was 0.336; with AZD6482 + Phenformin (first compound 8 µM), 0.418; in test [1] (first compound 0.2 µM), 0.58. The relative viability in test [1] (first compound 0.6325 µM) turned out to be 0.626; in test [1] (first compound 2 µM) it was 0.603; in test [1] (first compound 6.325 µM), 0.672; with AZD6482 + Luminespib (first compound 0.08 µM), 0.476; with AZD6482 + Luminespib (first compound 0.253 µM), 0.204; in the test with AZD6482 + Luminespib (first compound 0.8 µM) it was 0.338. Moreover, the relative viability with AZD6482 + Luminespib (first compound 2.53 µM) was found to be 0.171; with AZD6482 + Luminespib (first compound 8 µM), 0.325; in the test with AZD6482 + Palbociclib (first compound 0.08 µM), 0.416; in the test with AZD6482 + Palbociclib (first compound 0.253 µM), 0.314; with AZD6482 + Palbociclib (first compound 0.8 µM), 0.343; with AZD6482 + Palbociclib (first compound 2.53 µM), 0.518. Besides, the relative viability with AZD6482 + Palbociclib (first compound 8 µM) was found to be 0.286.
